Laboratory results published in patent US20200316213A1, “MACROMOLECULAR PLATFORM FOR TARGETING SCAVENGER RECEPTOR A1” (THE UNITED STATES OF AMERICA, AS REPRESENTED BY THE …, priority 2017, published 2020).

Legend:
[1] = biological target: T1, scavenger receptor A1 (Mus musculus, UniProt P30204); experiment: Competitive inhibition of polymer-488 cell uptake by poly I / poly C in Raw 264.7 macrophages; format: cell-based; details: for inhibition of scavenger receptor interaction of polymer-488 (fluorescence): various concentrations of polymer-488 with inhibitor, Raw 264.7 macrophages (FIG. 3); for inhibition of polymer-488 fluorescence: various inhibitor concentrations, polymer-488 concentration constant, 37° C. 3 hours (FIG. 4)
T1 construct: endogenous in cells; host or cells: Raw 264.7 macrophages
T1 sequence (P30204 1-458): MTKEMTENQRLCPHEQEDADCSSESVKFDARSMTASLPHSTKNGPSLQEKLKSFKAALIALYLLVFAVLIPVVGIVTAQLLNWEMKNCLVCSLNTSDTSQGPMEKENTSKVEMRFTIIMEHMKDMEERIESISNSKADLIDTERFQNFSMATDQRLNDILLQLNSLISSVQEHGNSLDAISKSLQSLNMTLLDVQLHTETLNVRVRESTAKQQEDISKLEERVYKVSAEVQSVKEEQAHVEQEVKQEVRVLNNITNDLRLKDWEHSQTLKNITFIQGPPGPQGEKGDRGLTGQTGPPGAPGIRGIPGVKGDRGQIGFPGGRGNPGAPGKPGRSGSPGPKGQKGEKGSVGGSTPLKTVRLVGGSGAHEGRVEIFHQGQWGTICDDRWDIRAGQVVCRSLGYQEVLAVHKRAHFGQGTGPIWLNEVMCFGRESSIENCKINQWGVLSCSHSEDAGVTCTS
Description: The fluorescently labelled poly(L-lysine succinylated) was also tested for cell uptake in a macrophage cell line Raw 264.7 in the presence of competitive inhibitors and relevant controls. […] At higher concentrations of polymer-488, fluorescence is seen due to competing off the poly I.
In a follow up study, cells were treated with various concentrations of either poly I or poly C while polymer-488 concentration remained constant. In this study, Raw 264.7 cells were incubated overnight at 400,000 cells/mL. The cells were treated with various concentrations of polymer-488 and either 200 μg/mL poly I, 200 μg/mL poly C, or no inhibitor. The cells were incubated at 37° C. for 3 hours, washed 3 times with media, and fluorescence measured.

[2] = male, Sprague-Dawley, rat, in vivo, iv, 10 mg/kg
[3] = in vivo; details: male, Sprague-Dawley, rat, iv, 10 mg/kg

Compound | inhibition of scavenger receptor interaction of polymer-488 (fluorescence) [1] | inhibition of polymer-488 fluorescence [1] | Tlast [2] [h] | Tmax [3] [h] | Cmax ([3]; Cmax) [ng/g]
polycytidylic acid [poly C] | not with poly C | virtually no inhibition of fluorescence | – | – | –
Nc1nc(=O)n([C@@H]2CS[C@H](CO)O2)cc1F [Emtricitabine, emtricitabine] | – | – | 96 | 4 | 86.7
polyinosinic acid [poly I] | inhibition of scavenger receptor interaction | dose-dependent inhibition | – | – | –
